Experimental data reported in patent publication US20040197268A1, “Method of imaging amyloid deposits using substituted rhodanine derivatives” (priority 1999, published 2004).
“And” between values parts separate entries of the source, which are not always exact repeats. Equal entries are not always repeated.

How the values were obtained:
[1] = biological target: T1, beta amyloid peptide Aβ(1-40) (Homo sapiens, UniProt P05067); assay: BAPA (Beta-Amyloid Peptide Aggregation), pH 6.0; type: biochemical; settings: Aβ(1-40) 33 μM, pH 6.0, 2 to 4 hours at room temperature, filtration
T1 construct: 0.5 mg/mL AP (140) peptide in 20% HFIP+0.1 μL/assay radioiodinated ^125I Aβ(1-40)
T1 sequence (P05067 672-711 limits assumed): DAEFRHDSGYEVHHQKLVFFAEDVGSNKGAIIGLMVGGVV
Procedure: BAPA (Beta-Amyloid Peptide Aggregation)
This assay is used to provide a measure of inhibition by a compound against the aggregation behavior of the beta amyloid peptide.
The purpose of this assay is to provide a higher volume method of assaying the amount of beta amyloid aggregation using an endpoint assay based on filtration. In this assay, hexafluoroisopropanol (HFIP) is used to break down the initial amyloid peptide to a monomer state and use a concentration of 33 μM which is high enough so that aggregation will occur at pH 6.0 in several hours.
β-Amyloid Peptide Aggregation, pH 6.0 (BAPA)
In a 96-well plate (Costar 3794), we add […] 50 mM Phosphate Buffer, pH 6.0, 10 μL 0.5 mg/mL AP (140) peptide in 20% HFIP+0.1 μL/assay radioiodinated ^125I Aβ(1-40) [^125I Aβ(1-40)], and 1 μL of the compound to be tested starting at 50 mM with a concentration of DMSO <1%. Then, we incubate for 2 to 4 hours at room temperature. We stop the reaction with […] of 50 mM phosphate buffer, pH 6.0, and filter it through a 0.2 μm 96-well filter plate (Millipore MAGU N22). We wash the filter plate with 100 μL of the same phosphate buffer. Aggregation was detected on a Microbeta counter after impregnating the filters with Meltilex (1450-441) and is corrected for background.

Aβ(1-42) = biological target: T2, Aβ(1-42) (Homo sapiens, UniProt P05067); assay: BATYM Assay (Aβ(1-42) aggregation, Thioflavin T fluorescence); type: biochemical; settings: Aβ 1-42 final concentration 100 μM, PBS pH 7.4, 37° C., 1 day, ThT fluorescence
T2 construct: Required Aβ(1-42)(California Peptide) was dried from its hexafluoroisopropanol (HFIP) stock solution; purchased California Peptide
T2 sequence (P05067 672-713 limits assumed): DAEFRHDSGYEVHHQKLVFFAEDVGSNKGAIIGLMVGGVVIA
Procedure: Required Aβ(1-42)(California Peptide) was dried from its hexafluoroisopropanol (HFIP) stock solution. The Aβ(1-42) was dissolved in dimethylsulfoxide (DMSO) and then mixed with phosphate buffered saline, (PBS) (pH 7.4). The mixed Aβ(1-42) solution was filtered with a 0.2 μm Omnipore membrane syringe filter (Millipore, Bedford, Mass.). The compound to be tested in DMSO (50 times concentrate) was put into each well (0.5 μL/well) of a 96-well plate. The Aβ(1-42) solution was added into each well (24.5 μL/well). The plate was centrifuged at 1,000 g for 5 minutes and incubated at 37° C. for 1 day (Aβ 1-42; final concentration 100 μM).
After incubation Thioflavin T (ThT) (30 μM) solution in glycine-NaOH buffer (pH 8.5, 50 mM) was added into each well (250 μL/well), fluorescence was measured (ex. 440/20 nm; em 485/20 nm) using a fluorescence plate reader. The inhibitory activity was calculated as the reduction of fluorescence with the following formula:
inhibition (%)={(F(Aβ)−F(Aβ+compound)}/{F(Aβ)−F(solvent+compound)}×100
The IC50s were calculated by a curve fitting program using the following equation. The data were obtained from two different experiments in triplicate.
x=concentration of tested compound (M),

Aβ(1-40) [2] = biological target: T3, Aβ(1-40) (Homo sapiens, UniProt P05067); assay: BASSR (Beta-Amyloid Self-Seeding Radioassay), inhibitors of self-seeded amyloid fibril growth; type: biochemical; settings: 30 μM soluble Aβ(1-40) + 125I-labeled Aβ(1-40), pH 7.5, 37° C., 3 to 5 hours, filtration
T3 construct: Soluble Aβ(1-40) peptide (Bachem, Torrance, Calif.); purchased Bachem, Torrance, Calif
T3 sequence (P05067 672-711 limits assumed): as the sequence (P05067 672-711 limits assumed) above
Procedure: BASSR (Beta-Amyloid Self-Seeding Radioassay)
(§1) An assay for inhibitors of self-seeded amyloid fibril growth
Assay Buffer—50 mM sodium phosphate, pH 7.5, 100 mM NaCl, 0.02% NaN3, 1 M urea (filter and store at 4° C.)
Soluble Aβ(1-40) peptide (Bachem, Torrance, Calif.)—2.2 mg/mL in deionized H2O (stored in aliquots at −20° C., keep on ice when thawed) will self-seed after 1 week storage. Typically, the solution should be stored until no lag phase is seen in the assay.
^125I-labeled Aβ(1-40)—150K-350K cpm/μL in 100% acetonitrile—0.1% trifluoroacetic acid (TFA)—1% β-mercaptoethanol (aliquots stored at −20° C.). ^125I-labeled Aβ(1-40) can be made in accordance with the procedure set forth by H. Levine, III in Neurobiol. Aging, 16:755 (1995), which is hereby incorporated by reference, or this reagent may be purchased from Amersham, Arlington Heights, Ill.
Final assay conditions: 30 μM soluble Aβ(1-40) in deionized water in assay buffer+20-50K cpm ^125I-labeled Aβ(1-40) per assay. Compound to be tested is dissolved in dimethylsulfoxide (DMSO), typically 5-50 mM stock, such that the final concentration of DMSO is <1% v/v in the assay.
Assay: Reaction mixture for 50 assays (on ice) is comprised of 0.1-0.2 μL of […] ^125I-labeled Aβ(1-40)+1 μL of soluble Aβ(1-40)+13.5 μL assay buffer per assay. The following are the amounts of the components of the reaction mixture sufficient for 50 assay wells.
1) Prepare reaction mixture above by mixing components and storing on ice.
2) Pipet 14.5 μL of reaction mixture into each of 50 wells on a polypropylene U-bottom 96-well microtiter plate on ice (Costar 3794).
(§2) 3) Add 1.7 μL of diluted compound to be tested to each well in a column of eight, including solvent control. Serial 3-fold dilutions from 1 mM (100 μM final) in assay buffer−urea=7 dilutions+zero. Each 96-well plate can therefore accommodate 11 samples+1 Congo Red control (0.039-5 μM final in 2-fold steps).
4) Seal the plate with aluminum film (Beckman 538619) and incubate for 10 minutes on ice.
5) Raise the temperature to 37° C. and incubate for 3 to 5 hours (depending on the lot of the peptide).
6) Remove the aluminum film and add 200 μL/well of ice cold assay buffer with urea, collecting the radiolabeled fibrils by vacuum filtration through 0.2 μm pore size GVWP filters in 96-well plates (Millipore MAGV N22, Bedford, Mass.). Determine the radioactivity of the filters using standard methods well-known to those skilled in the art.

Aβ(1-40) [3] = biological target: T3, Aβ(1-40); assay: BASST (Beta-Amyloid Self-Seeding, ThioflavinT), inhibitors of self-seeded amyloid fibril growth; type: biochemical; settings: 30 μM soluble Aβ(1-40), pH 7.5, 37° C., 3 to 5 hours, thioflavin T fluorescence
Procedure: BASST (Beta-Amyloid Self-Seeding, ThioflavinT)
as §1
Assay Buffer—50 mM sodium phosphate, pH 7.5, 100 mM NaCl, 0.02% NaN3, 1 M urea (filter and store at 4° C.).
Soluble Aβ(1-40)—2.2 mg/mL in deionized H2O (store in aliquots at −20° C., keep on ice when thawed) will self-seed after 1 week storage. Typically, the solution should be stored until no lag phase is seen in the assay.
Final assay conditions: 30 μM soluble Aβ(1-40) in deionized water in assay buffer. Compound to be tested is dissolved in DMSO, typically 5-50 mM stock, such that the final concentration of DMSO is <1% v/v in the assay.
Assay: Reaction mixture for 50 assays (on ice) comprised of 1 μL of soluble Aβ(1-40)+13.5 μL assay buffer per assay. The following are the amounts of the components of the reaction mixture that result in each of the 50 assay wells.
1) Prepare the reaction mix above by mixing the components and storing on ice.
2) Pipet […] of reaction mixture into each of 50 wells of a polystyrene U-bottom 96-well microtiter plate (Corning 25881-96) on ice.
as §2, with “[…]” for “μL”
4) Seal the plate with aluminum film and incubate for 10 minutes on ice.
5) Raise the temperature to 37° C. and incubate for 3 to 5 hours (depends on the lot of the peptide).
6) Remove the aluminum film and add 250 μL/well of 5 μM thioflavin T (ThT) [T-3516, Sigma-Aldrich] in 50 mM glycine-NaOH, pH 8.5. Read fluorescence on a plate reader (ex=440 nm/20 nm; em=485 nm/20 nm) within 5 minutes.

SMILES	IC50 [1] [µM]	IC50 (Aβ(1-42)) [µM]	melting point [°C]	IC50 (Aβ(1-40) [2])	IC50 (Aβ(1-40) [3])
CCCCCCN(C)c1ccc(/C=C2\SC(=S)N(Cc3nnn[nH]3)C2=O)cc1 [Example 16, (Z) 5-[4-(Hexyl-methyl-amino)benzylidene]-3-(1H-tetrazol-5-ylmethyl)-2-thioxo-thiazolidin-4-one]	38	1.94	198 to 200	7 µM	3 µM
CCCCCN(CCCCC)c1ccc(/C=C2\SC(=S)N(Cc3nnn[nH]3)C2=O)cc1 [Example 17]	2	1.87	208 to 210	10 µM and 5 µM	1 µM and 1.5 µM
CCCCN(CCCC)c1ccc(/C=C2\SC(=S)N(CC(=O)NS(=O)(=O)C(F)(F)F)C2=O)cc1 [Example 18, (Z) N-{[5-(4-Dibutylamino-benzylidene)-4-oxo-2-thioxo-thiazolidin-3-yl]-acetyl}-C,C,C-trifluoro-methanesulfonamide]	122	1.88	228 to 230	5 µM	0.6 µM
CCCCN(CCCC)c1ccc(/C=C2\SC(=S)N(CC(=O)NS(=O)(=O)c3ccccc3)C2=O)cc1 [Example 19, (Z) N-{[5-(4-Dibutylamino-benzytidene)-4-oxo-2-thioxo-thiazolidin-3-yl]-acetyl}-benzenesulfonamide]	129	1.77	112 to 115	5 µM	1.1 µM
CCCCCN(CCCCC)c1ccc(/C=C2\SC(=S)N(CC(=O)NS(=O)(=O)c3ccccc3)C2=O)cc1 [Example 22, (Z) N-{2-[5-(4-Dipentylamino-benzylidene)-4-oxo-2-thioxo-thiazolidin-3-yl]-acetyl}-benzenesulfonamide]	> 60	1.99	121 to 123	3 µM	1 µM
O=C1/C(=C/c2ccc(N3CC[C@@H]4CCCC[C@H]4C3)cc2)SC(=S)N1Cc1nnn[nH]1 [Example 23, (Z) 5-[(4aS,8aR)-4-(Octahydro-isoquinolin-2-yl)-benzylidene]-3-(1H-tetrazol-5-ylmethyl)-2-thioxo-thiazolidin-4-one]	30	3.33	247	> 100 µM	1 µM and 0.5 µM

The remaining lines, values ahead:

IC50 [1] [µM]	IC50 (Aβ(1-42)) [µM]	melting point [°C]	IC50 (Aβ(1-40) [2])	IC50 (Aβ(1-40) [3])	SMILES
93	2.02	130 to 132	7 µM	2 µM	CCCCCN(CCCCC)c1ccc(/C=C2\SC(=S)N(CC(=O)NS(=O)(=O)c3ccc(F)cc3)C2=O)cc1 [Example 27, (Z) N-{2-[5-(4-Dipentylamino-benzylidene)-4-oxo-2-thioxo-thiazolidin-3-yl]-acetyl}-4-fluoro-benzenesulfonamide]
69	2.19	183	21 µM	0.3 µM	CCCCN(CCCC)c1ccc(/C=C2\SC(=S)N(CCS(=O)(=O)NC(=O)c3ccccc3)C2=O)cc1 [Example 28, (Z) 2-[5-(4-Dibutylamino-benzylidene)-4-oxo-2-thioxo-thiazolidin-3-yl]-ethanesulfonic acid benzoylamide]
> 100	3.42	213	11 µM	0.6 µM	O=C(NS(=O)(=O)CCN1C(=O)/C(=C/c2ccc(N3CCC4CCCCC4C3)cc2)SC1=S)c1ccccc1 (centres unmarked) [Example 29, (Z) 2-{5-[4-(Octahydro-isoquinolin-2-yl)-benzylidene]-4-oxo-2-thioxo-thiazolidin-3-yl}-ethanesulfonic acid benzoylamide]
> 60	2.26	248	> 100 µM	0.3 µM	O=C(NS(=O)(=O)CCN1C(=O)/C(=C/c2ccc(N3CCC4CCCCC4C3)cc2)SC1=S)c1ccc(F)cc1 (centres unmarked) [Example 30, (Z) 2-{5-[4(Octahydro-isoquinolin-2-yl)benzylidene]-4-oxo-2′-thioxo-thiazolidin-3-yl}-ethanesulfonic acid 4-fluoro-benzoylamide]
